Data on four compounds can be found in PubChem BioAssay (NCI).

The structures appear in SMILES notation.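 Each compound was tested at five concentrations against cells in 96-well plates for 48 hours. The concentration for full growth arrest is given as TGI.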

Some test systems named below: A498 renal; BT-549 breast; EKVX NSCLC; HOP-62 NSCLC; HT29 colon; MDA-MB-435; NCI-H23 lung; OVCAR-3 ovarian; SF-539 CNS; SNB-19 CNS.
What all share (experiment): inhibition of tumour cell growth, NCI panel, 48 h

Regarding `O=C(CN1CCCCC1)c1ccc2[nH]c(=O)oc2c1`, the TGI in the test on A498 renal, in the test on BT-549 breast, with EKVX NSCLC, in the test with HOP-62 NSCLC, in the test with HT29 colon and in the test with MDA-MB-435 was greater than 100 µM throughout. Besides, the TGI in the test with NCI-H23 lung, with OVCAR-3 ovarian, with SF-539 CNS and in the test on SNB-19 CNS was greater than 100 µM each time.
Turning to `O=C(Nc1ccc(Cl)cc1)c1cc(S(=O)(=O)Nc2nc3ncccc3[nH]2)c(SSc2cc(Cl)c(C(=O)Nc3ccc(Cl)cc3)cc2S(=O)(=O)Nc2nc3ncccc3[nH]2)cc1Cl`, the TGI in the test on A498 renal, with BT-549 breast, in the test on EKVX NSCLC, with HOP-62 NSCLC, in the test with HT29 colon and in the test on MDA-MB-435 was greater than 100 µM in each case. Moreover, the TGI in the test with NCI-H23 lung, in the test on OVCAR-3 ovarian, in the test with SF-539 CNS and in the test on SNB-19 CNS was greater than 100 µM in each case.
`CCCSc1ccc2[nH]c(N3C(=O)/C(=C/c4ccc(O)c(OC)c4)N=C3c3ccccc3)cc2c1`: the TGI with A498 renal was 93 µM; in the test on BT-549 breast it was 46.4 µM; in the test with EKVX NSCLC it was 67.4 µM; in the test on HOP-62 NSCLC, greater than 100 µM; in the test on HT29 colon it was 88.9 µM; in the test on MDA-MB-435 it was greater than 100 µM. Also, the TGI was 61.5 µM with NCI-H23 lung, greater than 100 µM with OVCAR-3 ovarian, 49 µM in the test with SF-539 CNS and greater than 100 µM in the test on SNB-19 CNS.
Take `COc1cc(O)c2c(=O)c3cccc(C)c3[nH]c2c1`: the TGI in the test with A498 renal, in the test with BT-549 breast, with EKVX NSCLC, in the test with HOP-62 NSCLC, with HT29 colon and with MDA-MB-435 was greater than 10 µM each time. Moreover, the TGI with NCI-H23 lung, in the test on OVCAR-3 ovarian, with SF-539 CNS and with SNB-19 CNS was greater than 10 µM in each case.
